Reference: publication PMC5599305 (The pharmacogenomics journal, 2017)

What was measured:
Assay type in all cases: cell-based
[1] = biological target: T1, human α4β2 nicotinic receptor, 3:2 (α4:β2) stoichiometry; (α4)3(β2)2 (Homo sapiens, UniProt P17787+P43681); experiment: two-electrode voltage clamp, Xenopus oocytes; details: agonist
[2] = biological target: T1, human α4β2 nicotinic receptor, 3:2 (α4:β2) stoichiometry; (α4)3(β2)2; experiment: two-electrode voltage clamp, Xenopus oocytes, direct activation; details: 200 μM compound alone; weak agonism
[3] = biological target: human α4β2 nicotinic receptor, 2:3 stoichiometry; (α4)2(β2)3 (Homo sapiens, UniProt P17787+P43681); experiment: as above; details: 200 μM compound alone; weak agonism
Chain of human α4β2 nicotinic receptor, 2:3 stoichiometry; (α4)2(β2)3 (P43681 27-627): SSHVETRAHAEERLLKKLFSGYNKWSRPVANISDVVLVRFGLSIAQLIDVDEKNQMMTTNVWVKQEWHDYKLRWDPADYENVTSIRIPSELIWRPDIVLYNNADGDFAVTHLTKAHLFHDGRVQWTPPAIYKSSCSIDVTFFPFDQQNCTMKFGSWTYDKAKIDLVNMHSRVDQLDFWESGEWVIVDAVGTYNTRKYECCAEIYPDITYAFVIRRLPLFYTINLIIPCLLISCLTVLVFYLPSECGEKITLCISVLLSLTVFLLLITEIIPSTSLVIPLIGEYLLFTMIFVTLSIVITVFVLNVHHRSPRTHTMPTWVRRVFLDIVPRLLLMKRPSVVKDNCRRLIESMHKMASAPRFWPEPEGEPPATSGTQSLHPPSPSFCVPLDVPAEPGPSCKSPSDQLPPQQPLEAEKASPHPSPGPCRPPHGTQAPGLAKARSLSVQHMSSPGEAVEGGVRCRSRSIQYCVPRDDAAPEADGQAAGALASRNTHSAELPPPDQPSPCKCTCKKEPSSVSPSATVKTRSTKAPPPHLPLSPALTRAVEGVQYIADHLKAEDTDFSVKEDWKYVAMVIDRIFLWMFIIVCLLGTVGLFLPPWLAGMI
Chain of human α4β2 nicotinic receptor, 2:3 stoichiometry; (α4)2(β2)3 (P17787 26-502): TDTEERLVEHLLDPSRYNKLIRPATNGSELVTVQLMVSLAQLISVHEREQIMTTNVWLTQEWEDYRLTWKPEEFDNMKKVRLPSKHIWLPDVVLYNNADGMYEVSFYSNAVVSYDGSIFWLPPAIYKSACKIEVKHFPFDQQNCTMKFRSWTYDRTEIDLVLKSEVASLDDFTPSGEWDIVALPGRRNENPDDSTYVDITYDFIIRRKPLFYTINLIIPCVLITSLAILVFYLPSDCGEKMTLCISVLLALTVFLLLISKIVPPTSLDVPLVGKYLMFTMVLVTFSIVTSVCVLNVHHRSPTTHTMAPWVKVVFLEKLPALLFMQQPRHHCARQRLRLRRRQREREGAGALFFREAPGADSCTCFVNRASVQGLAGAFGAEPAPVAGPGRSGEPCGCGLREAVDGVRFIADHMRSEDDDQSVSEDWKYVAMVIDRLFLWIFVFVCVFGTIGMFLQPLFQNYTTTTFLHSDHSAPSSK

T1 sequence (P43681 27-627): as the sequence (P43681 27-627) above
T1 sequence (P17787 26-502): as the sequence (P17787 26-502) above

Row | SMILES | EC3 [1] | relative peak response, % of 1 mM ACh response, at 200 μM [2] | relative peak response, % of saturating ACh response, at 200 μM [3]
1 | CC(=O)OCC[N+](C)(C)C [acetylcholine] | ~ 1 μM | – | –
2 | C[N@@+]1([O-])CCC[C@H]1c1cccnc1 [trans-nicotine-N-oxide] | – | 1.7 ± 0.3% | 5.7 ± 1.1%
